The conditions of this series: in n-octanol.

The term solubility (mole fraction) denotes the moles of solute divided by all moles in the saturated solution. Regarding `COc1cc(NS(=O)(=O)c2ccc(N)cc2)ncn1`, the solubility (mole fraction) is, setting by setting: (303.15 K) 8.68e-05; (308.15 K) 9.52e-05; (313.15 K) 0.000104; (323.15 K) 0.00012; (328.15 K) 0.000129; (333.15 K) 0.000136.
In turn, `COc1cc(NS(=O)(=O)c2ccc(N)cc2)nc(OC)n1` returned a solubility (mole fraction) (298.15 K) of 0.000167; a solubility (mole fraction) (303.15 K) of 0.00018; a solubility (mole fraction) (308.15 K) of 0.000194; a solubility (mole fraction) (313.15 K) of 0.000213; a solubility (mole fraction) (318.15 K) of 0.000235; a solubility (mole fraction) (323.15 K) of 0.000261. In addition, the solubility (mole fraction) amounted to 0.000294 (328.15 K) and 0.000332 (333.15 K).
Regarding `COc1cnc(NS(=O)(=O)c2ccc(N)cc2)nc1`, the solubility (mole fraction) by setting is: (298.15 K) 8.8e-05; (303.15 K) 9.42e-05; (308.15 K) 0.000101; (313.15 K) 0.000108; (318.15 K) 0.000115; (323.15 K) 0.000123. Further, the solubility (mole fraction) reads like this: (328.15 K) 0.000132; (333.15 K) 0.000141.
